Consider one sequence from patent US10854312B2, “Selective peptide antagonists” (BIONIZ, LLC, priority 2013, dated 2020).

Entries after “also recorded” stand apart in the source; their conditions may differ. No end group written: not given here. MAL‑PEG24 = bi-functional PEG24 molecule (Mal-PEG24)

Holding throughout (assay type): cell-based
In one assay the test system is IL-6. The assay can be described thus: T1165 cell proliferation assay, IL-6. As to conditions: IL-6 0.1 ng/ml, BNZ132-PEG-130 0.1-10 μM, 24 hours, WST-1. The protocol:
CTLL2 cells are cultured in the presence of 5 u/ml and 10 u/ml of IL-2 (FIG. 10A) and 2.5 ng/ml and 5 ng/ml of IL-15 (FIG. 10B) in the presence of increasing concentration of BNZ132-PEG-130. T1165 cells are cultured with 0.1 ng/ml of IL-6 (FIG. 10C) and increasing concentration of BNZ132-PEG-130. […] BNZ132-1 was conjugated to BNZ130 via a PEG24 linker. The name of the bi-antagonist peptide is BNZ132-PEG-130. FIG. 10A and FIG. 10B show the results of BNZ132-PEG-130 in IL-2 (FIG. 10A) and IL-15 (FIG. 10B) CTLL2 proliferation assay. Cells were washed and incubated with IL-2 (5 and 10 units/ml), IL-15 (2.5 and 5 ng/ml) in the presence or absence of BNZ132-PEG-130 (0.1-10 μM). Cells were then pulsed with the WST-1 reagent to measure the proliferative response for the next 6 hr (OD450). […] Cells are washed and incubated with IL-6 (0.1 ng/ml) in the presence or absence of BNZ132-PEG-130 (0.1-10 μM) for 24 hours. Cells were then pulsed with WST-1 reagent for the following 6 hr to measure OD450. The BNZ130-1 polypeptide as presented in Table 2, above, is tested for its activity in inhibiting IL-6 activity. T1165 cells that are dependent on human or mouse IL-6 for their growth in vitro are selected. The cell line is cultured in the absence of IL-6, In the presence of IL-6, in the presence of BNZ130-1, and in the presence of IL-6 and BNZ130-1.
(In general: Tetrazolium assays rely on reduction of a dye to a coloured formazan, in cell work by metabolically active cells.)

The subject of the next assay is human IL-2. The assay can be described thus: CTLL-2 proliferation assay (WST-1), IL-2. Conditions: IL-2 5 and 10 units/ml, BNZ132-PEG-130 0.1-10 μM, WST-1. The protocol: (§1) FIG. 6A-FIG. 6E presents inhibitory spectrum of BNZ132-1 over γc- and non-γc-cytokines. […] Neutralizing antibodies against each cytokine (R & D systems, 5 μg ml^−1) were included as controls. After 20 h, the cells were pulsed with WST-1 (Clontech) and OD450 of each well was measured after 6 h. A 19-mer scrambled peptide was used as a negative control at 5 μM. The experiments were conducted in triplicate (applies to all experiments in FIG. 6A-FIG. 6E). The result represents one of at least three independent experiments (applies to all experiments in FIG. 6A-FIG. 6E). […] In PT-18 proliferation assay, PT-18β or PT-18h21Rα cells were withdrawn of mouse IL-3 for 12 h before the experiment. Cells were then incubated with 1 nM of mouse IL-4, mouse IL-9, or mouse IL-21 in the presence or absence of the indicated doses (μM) of BNZ132-1. Neutralizing antibodies to each cytokine (5 μg ml^−1, except for anti-mouse IL-21 polyclonal antibody which was used at 15 μg ml−1) and a scrambled control peptide (5 μM) were included as negative controls. WST-1 assay was conducted as described above. […] In PT-18 h21Rα survival assay, PT-18h21Rα cells are described in the text. […] Both parental and hIL-21Rα positive PT-18 cells were washed and incubated without IL-3 for 12 h before the assay. […] The Y-axis represents the cpm (count per minute) values measured by a β-counter. […]

Another assay has as its system human IL-15. The assay can be described thus: CTLL-2 proliferation assay (WST-1), IL-15. Conditions: IL-15 2.5 and 5 ng/ml, BNZ132-PEG-130 0.1-10 μM, WST-1. The protocol:
as §1

As to “IKEFLQSFIHIVQSIINT (SEQ ID NO: 130)—MAL-PEG24—SLTHLIERSSRAVLQSLLRASRQ (SEQ ID NO: 131) (linker (positions not given here) via MAL‑PEG24; also: MAL-PEG24 linker joins the two peptides, attachment points not given here) [BNZ132-PEG-130, BNZ132-1 conjugated to BNZ130 via a PEG24 linker; dual peptide antagonist]”, the “inhibition of IL-6-induced proliferation of T1165 cells” value in the assay on IL-6 was “inhibiting; also recorded: inhibited in a dose response manner”. For the same sequence, in the assay on human IL-2, the “inhibition of IL-2-induced proliferation of CTLL2 cells” value is listed as “inhibiting; also recorded: inhibited in a dose response manner”. The “inhibition of IL-15-induced proliferation of CTLL2 cells” value with human IL-15 is on record as “inhibiting; also recorded: inhibited in a dose response manner”.
